How the values were obtained:
CL1-5 cells = details: Lin and Wang 2007; cited from earlier work
A549 = assay: MTT cell viability assay; format: cell-based; details: Homo sapiens, SETDB1 non-amplified cell line A549
Text: (§1) The observation that the presence of the SETDB1 gene amplification with associated overexpression was critical for the tumorigenesis of these lung cancer cells prompted the inventors to examine whether drugs targeting this pathway might find a therapeutic "niche" for their use in the described subset of cases with extra copies of this gene. No highly specific inhibitor for SETDB1 has been described in the publicly available literature, but one agent-mithramycin- is a clinically approved anti-tumor antibiotic that binds to DNA by interacting with the minor groove and displacing transcriptional activators that bind to GC-rich binding sites. Thus, the inventors tested whether a putative growth-inhibitory effect of this drug in lung cancer cells was dependent on SETDB1 expression. First, western blot analyses for the SETDB1 protein in the SETDB1 amplified lung cancer cell lines DMS-273, NCI-H1437 and NCI-H1395 upon the use of the drug were developed. […] Experiments for each clone were performed in triplicate. Furthermore, we extended the cell viability experiments, using the MTT assay, to the other two SETDB1 amplified lung cancer cell lines (NCI-H1437 and NCI-H1395) and to three SETDB1 non-amplified lung cancer cell lines (DMS-114, A549 and NCI-H1299). […] Thus, the presence of SETDB1 gene amplification could "mark" lung cancer cells that are more sensitive to the inhibition of cell viability associated with the use of mithramycin.

DMS-114 = assay: MTT cell viability assay; format: cell-based; details: Homo sapiens, SETDB1 non-amplified cell line DMS-114
Text: as §1

NCI-H1395 = assay: MTT cell viability assay; format: cell-based; details: Homo sapiens, SETDB1 amplified cell line NCI-H1395
Text: as §1

H647 = details: Lin and Wang 2007; cited from earlier work
DMS-273 = assay: MTT cell viability assay; format: cell-based, human; details: scramble shRNA DMS-273 cells compared with SETDB1-depleted clones; triplicate
Description: (§2) • Figure 1. Determination of SETDB1 gene amplification and its association with RNA and protein overexpression in lung cancer cell lines. (A) Assessment of SETDB1 copy number by quantitative genomic PCR. Amplification frequency of SETDB1 (evaluated with SYBR Green) was calculated by the standard curve method using the 7900HT SDS program. To define an internal control gene chromosome 1p36.23 was chosen because it is the least aneuploid region among our cell lines (PEX19 gene). DNA from normal lung was used as the reference standard. Results are reported as n-fold copy number increase relative to the PEX19 gene. […] The internal control gene was ACTB (beta-actin). • Figure 2. Growth-promoting effects of SETDB1 in lung cancer. (A) Stable down-regulation of the SETDB1 gene by short hairpins using two different target sequences for DMS-273 (clones A30/A31 and clone B32-63) and NCI-H1437 (clones A56-B and B46-9). […] Tumor volume was monitored over time and the tumor was excised and weighed at 30 days. […] (A) Effect of SETDB1 on the invasion potential of A549 cells determined by the matrigel invasion assay. […] Invasive cells were counted using ImageJ 1.45s (Wayne Rasband, National Institutes of Health, USA) and the percentage of invasive cells was represented. Results are the mean of at least three experiments by duplicate and the significance was determined using ANOVA-test. *p<0.05. […]

CL1-5 = details: Lin and Wang 2007; cited from earlier work
SETDB1 protein = assay: Western blot for SETDB1 protein after drug treatment of SETDB1 amplified lung cancer cell lines; format: cell-based, human; details: DMS-273, NCI-H1437 and NCI-H1395
Description: as §2

NCI-H1299 = assay: MTT cell viability assay; format: cell-based; details: Homo sapiens, SETDB1 non-amplified cell line NCI-H1299
Description: as §2

NCI-H1437 = assay: MTT cell viability assay; format: cell-based; details: Homo sapiens, SETDB1 amplified cell line NCI-H1437
Description: as §2

CO[C@H](C(=O)[C@@H](O)[C@@H](C)O)[C@@H]1Cc2cc3cc(O[C@H]4C[C@@H](O[C@H]5C[C@@H](O)[C@H](O)[C@@H](C)O5)[C@H](O)[C@@H](C)O4)c(C)c(O)c3c(O)c2C(=O)[C@H]1O[C@H]1C[C@@H](O[C@H]2C[C@@H](O[C@H]3C[C@](C)(O)[C@H](O)[C@@H](C)O3)[C@H](O)[C@@H](C)O2)[C@H](O)[C@@H](C)O1 [mithramycin, (1S)-5-deoxy-1-C-((2S,3S)-7-{[2,6-dideoxy-3-O-(2,6-dideoxy-β-D-arabino-hexopyranosyl)-β-D-arabino-hexopyranosyl]oxy}-3-{[2,6-dideoxy-3-C-methyl-β-D-ribo-hexopyranosyl-(1→3)-2,6-dideoxy-β-D-arabino-hexopyranosyl-(1→3)-2,6-dideoxy-β-D-arabino-hexopyranosyl]oxy}-5,10-dihydroxy-6-methyl-4-oxo-1,2,3,4-tetrahydroanthracen-2-yl)-1-O-methyl-D-xylulose]
invasion phenotypes (CL1-5 cells): inhibiting the invasion phenotypes
EC50 (A549): 122 nM
EC50 (DMS-114): 348 nM
EC50 (NCI-H1395): 14.7 nM
growth of human lung cancer cell lines (H647): inhibiting the growth
sensitivity to the growth-inhibitory effect (DMS-273): significantly more sensitive
growth of human lung cancer cell lines (CL1-5): inhibiting the growth
SETDB1 expression (SETDB1 protein): inhibit SETDB1 expression
EC50 (NCI-H1299): 32 nM
EC50 (NCI-H1437): 13.6 nM

Source: patent publication EP2813571A1, “Method for the treatment of lung cancer” (Institut d'Investigació Biomèdica de Bellvitge (IDIBELL), priority 2013, dated 2014)
